# Experimental data as given in PMC3813957 (Cancer prevention research (Philadelphia, Pa.), 2013).
# Read-outs that look alike come from different tables or passages of the source.
# Columns and labels:
# [1] = system: transgenic model of ER negative breast cancer; conditions: ref Lubet and Grubbs, unpublished data; cited from earlier work
# [2] = Serum pharmacokinetics of erlotinib and OSI-420 after gavage; conditions: for concentration at 2 h / concentration at 4 h / concentration at 8 h / concentration at 24 h / concentration at 48 h / half-life / AUC(0-t) / Cmax / Tmax: female, Sprague-Dawley, rat, serum
# [3] = cited from earlier work
# [4] = system: brain metastases; conditions: nine patients, median dose 1500 mg weekly; cited from earlier work
# [5] = system: phosphorylated ERKs (T202/Y204); experiment: Biomarker study: Western blot of phosphorylated ERK in mammary cancers; assay type: in vivo, female Sprague-Dawley rats
# [6] = system: established mammary cancers induced by methylnitrosourea; experiment: Therapy of established; assay type: in vivo, female Sprague-Dawley rats; conditions: for reduction of average tumor size: vehicle group increased 250%
# [7] = system: carcinogen-induced urinary bladder model; conditions: ref Lubet and Grubbs, unpublished data; cited from earlier work
# [8] = system: methylnitrosourea-induced mammary cancers; experiment: Prevention of methylnitrosourea-induced mammary carcinogenesis; assay type: in vivo, female Sprague-Dawley rats; conditions: for reduction of final tumor multiplicity: 6 mg/kg BW
# [9] = human, 150 mg, steady state; cited from earlier work
# [10] = system: MNU-induced rat mammary cancers; conditions: varied doses; cited from earlier work
# [11] = rat 42 mg/kg BW vs human 150 mg
# [12] = rat effective daily dose (6 mg/kg BW) vs human
# [13] = Experiment C, weekly dosing at either 42 or 21 mg/kg BW
compound,measurement,setting,value
C#Cc1cccc(Nc2ncnc3cc(OCCOC)c(OCCOC)cc23)c1 [Erlotinib],efficacy of weekly treatment,[1],strong efficacy
same,concentration at 2 h,"[2]; oral, 6 mg/kg BW/day",708 ± 48 ng/mL
same,concentration at 4 h,"[2]; oral, 6 mg/kg BW/day",427 ± 19 ng/mL
same,concentration at 8 h,"[2]; oral, 6 mg/kg BW/day",277 ± 102 ng/mL
same,concentration at 24 h,"[2]; oral, 6 mg/kg BW/day",25 ± 9 ng/mL
same,concentration at 48 h,"[2]; oral, 6 mg/kg BW/day",0 ng/mL
same,half-life,"[2]; oral, 6 mg/kg BW/day, half-life, daily erlotinib (discussion)",5 to 6 h
same,concentration at 2 h,"[2]; oral, 42 mg/kg BW",1350 ± 96 ng/mL
same,concentration at 4 h,"[2]; oral, 42 mg/kg BW",1060 ± 184 ng/mL
same,concentration at 8 h,"[2]; oral, 42 mg/kg BW",1590 ± 259 ng/mL
same,concentration at 24 h,"[2]; oral, 42 mg/kg BW",470 ± 121 ng/mL
same,concentration at 48 h,"[2]; oral, 42 mg/kg BW",52 ± 11 ng/mL
same,half-life,"[2]; oral, serum half-life",≤ 8 h
same,AUC(0-t),"[2]; po, 6 mg/kg",4680 ng·h/mL
same,Cmax,"[2]; po, 6 mg/kg",708 ng/mL
same,Tmax,"[2]; po, 6 mg/kg",2 h
same,half-life,"[2]; po, 6 mg/kg, T1/2, rat, non-compartmental",4.61 h
same,AUC(0-t),"[2]; po, 42 mg/kg",28400 ng·h/mL
same,Cmax,"[2]; po, 42 mg/kg",1590 ng/mL
same,Tmax,"[2]; po, 42 mg/kg",8 h
same,half-life,"[2]; po, 42 mg/kg, T1/2, rat, non-compartmental",8.06 h
same,AUC relative to the human dose,[2]; rat 6 mg/Kg BW vs human 150 mg,< 20%
same,Cmax relative to human levels,[2]; rat 6 mg/Kg BW vs human 150 mg,< 50%
same,AUC compared with the human,[2]; [11],similar
same,Cmax compared with that achieved in humans,[2]; [11],similar
same,AUC less than in the human,[2]; [12],5 ×
same,Cmax lower than in the human,[2]; [12],approximately 60%
same,patients with moderate (grade 2) rash,[3]; 2000 mg/week,42%
same,severe (grade 3) rash or diarrhea,"[3]; weekly dosing, doses up to 2000 mg/week, any dose level",no severe (grade 3) rash or diarrhea
same,efficacy,[4],significant efficacy was observed
same,phosphorylation of ERK in cancers (Western blot),[5]; 6 mg/kg BW/day daily for 7 days,striking decrease
same,levels of phosphorylated ERK,[5]; rats treated daily/weekly (abstract),strongly decreased
same,phosphorylated ERK in cancers (Western blot),"[5]; single weekly dose 42 mg/kg BW, examined 6 days following the treatment",strong decrease
same,reduction of average tumor size,[6]; 6 mg/kg BW daily for 6 weeks,40%
same,reduction of average tumor size,[6]; 42 mg/kg BW weekly for 6 weeks,25%
same,share of mammary tumors that decreased by 60% in size,"[6]; either daily (6 mg/kg BW) or weekly (42 mg/kg BW) dosing, 6 weeks",at least 50%
same,efficacy of weekly treatment,[7],strong efficacy
same,tumor incidence and latency,"[8]; Experiment A, 6 mg/kg BW daily, one day on/one day off, or two days on/two days off, all three regimens vs controls P<.01",reductions of tumor incidence and increases in latency
same,reduction of final tumor multiplicity,"[8]; Experiment A, 2 days on/2 days off, vs vehicle controls P<.001",75%
same,reduction of final tumor multiplicity,"[8]; Experiment A, intermittent dosing (both schedules)",65–75%
same,tumor incidence and latency,"[8]; Experiment B, 6 mg/kg BW daily, 6 mg/kg BW two days on/two days off, or 42 mg/kg BW weekly, all three vs controls P<.01",reduced tumor incidence and increased tumor latency
same,reduction of tumor multiplicity,"[8]; Experiment B, 6 mg/kg BW daily, vs controls P<.005",85%
same,tumor incidence,[8]; [13],strongly inhibited
same,tumor multiplicity,[8]; [13],strongly inhibited
same,preventive activity (tumor incidence and multiplicity),"[8]; initial studies, 6 mg/Kg BW/day, data not shown",highly effective
same,tumor incidence and multiplicity,"[8]; initial studies, various daily doses up to 6 mg/kg BW/day",dose dependent decrease
same,decrease of tumor multiplicity,[8]; lower weekly dose 21 mg/kg BW,approximately 85%
same,AUC0–24,[9],26500 ng·h/mL
same,Cmax,[9],1740 ng/mL
same,Tmax,[9],2.44 h
COc1cc2ncnc(Nc3ccc(F)c(Cl)c3)c2cc1OCCCN1CCOCC1 [gefitinib],tumor multiplicity,[10],dose dependent decrease
